According to US6534277B1, “Method for identifying a compound to be tested for an ability to reduce immune rejection by determining Stat4 and Stat6 proteins” (Millennium Pharmaceuticals, Inc., priority 2000, dated 2003):
“Also recorded” adds a separate entry of the source.

Tests used:
[1] = tested on: CD154 expression by CD3 mAb-activated CD4+ splenic T cells; assay: Activation-induced CD154 expression by CD4+ T cells, dual color flow cytometry; format: cell-based, mouse; settings: 7 hr, plate-bound CD3 mAb; for suppression (inhibition) of activation-induced CD154 expression: 125 ng/ml cyclosporin A, 20 ng/ml rapamycin, 100 μg/ml methylprednisolone, 1 μM mycophenolate mofetil, three experiments; for effect on activation-induced CD154 expression, in words: drug concentrations as b343 (10 μM lactacystin, 10 μM MG-273)
Experimental: Six-well plates (Costar) were pre-coated overnight with 1 μg/ml of […] anti-mouse CD3 mAb (2C11). After washing with media (RPMI supplemented with 10% fetal bovine serum, 50 U/ml penicillin, 50 μg/ml streptomycin, 2 mM glutamine and 50 μM 2-mercaptoethanol) one ml of media containing 2× final drug concentration was added to each well. After testing of a range of concentrations of each agent, the optimal final physiologic drug concentrations for the data to be reported were 125 ng/ml cyclosporin A, 20 ng/ml rapamycin. 100 μg/ml methylprednisolone, 1 μM mycophenolate mofetil, 10 μm lactacystin and 10 μM MG-273. Cells were obtained from mechanically disrupted spleens and, after collection by centrifugation and washing once with media, one ml aliquots containing two million viable splenocytes were added to each well. Cultures were incubated at 37° C. in 5% CO2 for 7 hr. and were then diluted two-fold with chilled media containing 0.1% sodium azide (FACS media). Cells were collected by centrifugation at 4° C., resuspended in FACS media containing 1 μg Fc Block (PharMingen) and incubated on ice for 15 min. Samples were then split and either a mixture of 1 μg each of FITC-conjugated CD4-specific mAb and PE-conjugated control hamster IgG mAb or FITC-conjugated CD4-specific mAb and PE-conjugated CD154-specific mAb were added. After a 30 min incubation on ice, cells were washed twice and analyzed on a Becton Dickinson FACScan using Cell Quest software. Viable CD4+ lymphocytes were gated using a combination of forward/side scatter and CD4 staining.

[2] = tested on: BALB/c cardiac allograft in B6/129 wild-type mice; assay: Heterotopic cardiac allograft survival, BALB/c donors into B6/129 wild-type recipients; format: in vivo, mouse; settings: with CD154 mAb/DST, rapamycin 0.2 mg/kg/d i.p., cyclosporin A 10 mg/kg/d i.p., methylprednisolone 1 mg/kg i.p., PS-519 1 mg/kg/d i.p., p<0.001
Experimental: Heterotopic cardiac allografting was performed with anastomoses to the abdominal aorta and vena cava (Hancock et al., 1998, Nature Medicine 4:1392-1396), using BALB/c donors and B6/129 wild-type or […] mice as recipients. Recipients were treated with hamster IgG or hamster anti-mouse (CD40L mAb; 250 μg, administered intravenously) plus DST (5×10^6 splenic mononuclear cells) at the time of transplantation (Hancock et al., 1998, Nature Medicine 4:1392-1396).
Heterotopic cardiac allografting was performed with anastomoses to the abdominal aorta and vena cava (Hancock, W. W. et al., 1998, Nature Medicine 4:1392-1396), using BALB/c donors and B6/129 wild-type or NF-κB/p50 KO mice as recipients (n=6/group). Recipients were treated with hamster IgG or hamster anti-mouse CD154 mAb (250 μg, i.v.) plus DST (“donor specific transfusion”; 5×10^6 splenic mononuclear cells) at the time of transplantation (Hancock, W. W. et al., 1998, Nature Medicine 4:1392-1396). […] Graft survival was monitored by daily palpation, and rejection was confirmed by laparotomy and histologic evaluation.
Heterotopic cardiac allografting was performed with anastomoses to the abdominal aorta and vena cava, using BALB/c donors and B6/129 wild-type or Stat-6 KO mice as recipients (n=6/group). […] Graft survival was monitored by daily palpation and rejection was confirmed by laparotomy and histologic evaluation.

`C[C@H]1C[C@@H]2[C@H]([C@@H](O)C[C@@]3(C)[C@H]2CC[C@]3(O)C(=O)CO)[C@@]2(C)C=CC(=O)C=C12` [methylprednisolone, 6α-methylprednisolone] was tested, and the “suppression (inhibition) of activation-induced CD154 expression” value (“suppression (inhibition)” for short) [1] was over 90%.

`COc1c(C)c2c(c(O)c1C/C=C(\C)CCC(=O)OCCN1CCOCC1)C(=O)OC2` [mycophenolate mofetil] was tested, and the “suppression (inhibition)” value [1] was under 10% and the “effect on activation-induced CD154 expression, in words” value [1] was “complete lack of effect”.

In the case of `CO[C@H]1C[C@@H]2CC[C@@H](C)[C@@](O)(O2)C(=O)C(=O)N2CCCC[C@H]2C(=O)O[C@H]([C@H](C)C[C@@H]2CC[C@@H](O)[C@H](OC)C2)CC(=O)[C@H](C)/C=C(\C)[C@@H](O)[C@@H](OC)C(=O)[C@H](C)C[C@H](C)/C=C/C=C/C=C/1C` [rapamycin], the “suppression (inhibition)” value [1] is reported as under 20%.

`CC(C)C[C@H](NC(=O)[C@H](Cc1cccc2ccccc12)NC(=O)N1CCOCC1)B(O)O` [MG-273] was tested, and the “effect on activation-induced CD154 expression, in words” value [1] was “significantly decreased; also recorded: significantly blocked”.

For `CCC[C@H]1C(=O)N[C@@]2([C@@H](O)C(C)C)C(=O)O[C@@H]12` [PS-519], the “effect of concomitant agent on the effects (efficacy) of CD154 mAb therapy on allograft survival” value ([2]; listed as lactacystin-derived (LC) proteasome inhibitor) was “significantly impaired” and the “effect of concomitant agent on the effects (efficacy) of CD154 mAb therapy on allograft survival” value ([2]; listed as proteasome inhibitor) was “blocked”.
